Test system: adult patients with essential tremor
Test: Example 16: accelerometer-based (Kinesia ONE) TETRAS upper limb score
Format: in vivo, human
Excerpt: Accelerometer (Kinesia ONE) TETRAS assessments were generally consistent with those conducted at the clinic. Accelerometer upper limb score values are summarized for Part A, the open-label titration phase of Part B, and the randomized withdrawal phase of Part B in Table 37, Table 38, and Table 39, respectively

[1] = Day 70, Part B, baseline upper limb score ≥10
[2] = Part A (N = 7), Day 1, Post - dose
[3] = Part B Open-Label Titration (N = 17), Day 1, Post - dose
[4] = Part B Open-Label Titration (N = 17), Day 7
[5] = Part B Open-Label Titration (N = 17), Day 21

Structure (SMILES): CC(C)(C)NC(=O)CN1CCC(CNC(=O)c2cc(F)cc(Cl)c2)CC1 [compound of formula (I), N-((1-(2-(tert-butylamino)-2-oxoethyl)piperidin-4-yl)methyl)-3-chloro-5-fluorobenzamide]
- Accelerometer-Based Upper Limb Score, Change from Randomization, LS Mean (SE) for Difference (Formula (I) - Placebo) [1]: 0.341 (1.8367)
- Accelerometer-Based Upper Limb Score, Change from Randomization, p-value for LS Mean Difference (Formula (I) - Placebo) [1]: 0.8597
- Accelerometer-Based Upper Limb Score, LS Mean Percentage Change Difference (Formula (I) - Placebo) [1]: 3.6%
- Accelerometer-Based Upper Limb Score, Change from Baseline, Median [2]: 0.20
- Accelerometer-Based Upper Limb Score, observed, Median [2]: 9.40
- Accelerometer-based Upper Limb Score, Change from Baseline, LS Mean [2]: 0.417
- Accelerometer-based Upper Limb Score, Change from Baseline, Mean [2]: 0.42
- Accelerometer-based Upper Limb Score, observed, Mean [2]: 10.93
- LS Mean Percentage Change in Tremor Amplitude [2]: 7.7%
- Percentage Change from Baseline in Tremor Amplitude, Mean [2]: 7.49%
- Percentage Change from Baseline in Tremor Amplitude, Median [2]: 3.76%
- Accelerometer-Based Upper Limb Score, Change from Baseline, Median (Part A (N = 7), Day 7): −0.40
- Accelerometer-Based Upper Limb Score, observed, Median (Part A (N = 7), Day 7): 10.38
- Accelerometer-based Upper Limb Score, Change from Baseline, LS Mean (Part A (N = 7), Day 7): −1.100
- Accelerometer-based Upper Limb Score, Change from Baseline, Mean (Part A (N = 7), Day 7): −1.10
- Accelerometer-based Upper Limb Score, observed, Mean (Part A (N = 7), Day 7): 9.31
- LS Mean Percentage Change in Tremor Amplitude (Part A (N = 7), Day 7): −19.0%
- Percentage Change from Baseline in Tremor Amplitude, Mean (Part A (N = 7), Day 7): −15.89%
- Percentage Change from Baseline in Tremor Amplitude, Median (Part A (N = 7), Day 7): −7.39%
- Accelerometer-Based Upper Limb Score, Change from Baseline, Median (Part A (N = 7), Day 14): −1.15
- Accelerometer-Based Upper Limb Score, observed, Median (Part A (N = 7), Day 14): 8.30
- Accelerometer-based Upper Limb Score, Change from Baseline, LS Mean (Part A (N = 7), Day 14): −1.300
- Accelerometer-based Upper Limb Score, Change from Baseline, Mean (Part A (N = 7), Day 14): −1.30
- Accelerometer-based Upper Limb Score, observed, Mean (Part A (N = 7), Day 14): 8.23
- LS Mean Percentage Change in Tremor Amplitude (Part A (N = 7), Day 14): −22.1%
- Percentage Change from Baseline in Tremor Amplitude, Mean (Part A (N = 7), Day 14): −20.27%
- Percentage Change from Baseline in Tremor Amplitude, Median (Part A (N = 7), Day 14): −19.80%
- Accelerometer-Based Upper Limb Score, Change from Baseline, Median (Part A (N = 7), Day 21): −1.05
- Accelerometer-Based Upper Limb Score, observed, Median (Part A (N = 7), Day 21): 10.98
- Accelerometer-based Upper Limb Score, Change from Baseline, LS Mean (Part A (N = 7), Day 21): −0.117
- Accelerometer-based Upper Limb Score, Change from Baseline, Mean (Part A (N = 7), Day 21): −0.12
- Accelerometer-based Upper Limb Score, observed, Mean (Part A (N = 7), Day 21): 10.11
- LS Mean Percentage Change in Tremor Amplitude (Part A (N = 7), Day 21): −2.2%
- Percentage Change from Baseline in Tremor Amplitude, Mean (Part A (N = 7), Day 21): −2.75%
- Percentage Change from Baseline in Tremor Amplitude, Median (Part A (N = 7), Day 21): −18.25%
- Accelerometer-Based Upper Limb Score, Change from Baseline, LS Mean (SE) [3]: −0.633 (0.3456)
- Accelerometer-Based Upper Limb Score, Change from Baseline, Mean (SD) [3]: −0.56 (1.700)
- Accelerometer-Based Upper Limb Score, Change from Baseline, Median [3]: −0.60
- Accelerometer-Based Upper Limb Score, observed, Mean (SD) [3]: 9.67 (3.109)
- Accelerometer-Based Upper Limb Score, observed, Median [3]: 10.50
- LS Mean Percentage Change in Tremor Amplitude [3]: −11.4%
- Percentage Change from Baseline in Tremor Amplitude, Mean (SD) [3]: −8.42 (25.587) %
- Percentage Change from Baseline in Tremor Amplitude, Median [3]: −10.87%
- Accelerometer-Based Upper Limb Score, Change from Baseline, LS Mean (SE) [4]: −1.235 (0.3722)
- Accelerometer-Based Upper Limb Score, Change from Baseline, Mean (SD) [4]: −1.15 (2.151)
- Accelerometer-Based Upper Limb Score, Change from Baseline, Median [4]: −1.20
- Accelerometer-Based Upper Limb Score, observed, Mean (SD) [4]: 8.91 (3.335)
- Accelerometer-Based Upper Limb Score, observed, Median [4]: 8.85
- LS Mean Percentage Change in Tremor Amplitude [4]: −21.1%
- Percentage Change from Baseline in Tremor Amplitude, Mean (SD) [4]: −15.44 (29.596) %
- Percentage Change from Baseline in Tremor Amplitude, Median [4]: −19.95%
- Accelerometer-Based Upper Limb Score, Change from Baseline, LS Mean (SE) [5]: −1.835 (0.4715)
- Accelerometer-Based Upper Limb Score, Change from Baseline, Mean (SD) [5]: −1.57 (2.142)
- Accelerometer-Based Upper Limb Score, Change from Baseline, Median [5]: −1.00
- Accelerometer-Based Upper Limb Score, observed, Mean (SD) [5]: 9.09 (2.989)
- Accelerometer-Based Upper Limb Score, observed, Median [5]: 8.95
- LS Mean Percentage Change in Tremor Amplitude [5]: −29.7%
- Percentage Change from Baseline in Tremor Amplitude, Mean (SD) [5]: −21.20 (27.676) %

Source: US20250295646A1, “METHODS OF USE OF T-TYPE CALCIUM CHANNEL MODULATORS” (Praxis Precision Medicines, Inc., priority 2022, published 2025)
